Measured values: US20250361230A1, “LATS Inhibitors and Uses Thereof” (The USA, as Represented by the Secretary, Dept. of Heath …, priority 2022, published 2025)
Like-named read-outs stand apart in the source and are kept apart here.

How the values were obtained:
Format in all cases: biochemical
AKT = AKT (Homo sapiens, UniProt P31749); test: RBC HotSpot kinase assay (33P-ATP, P81 filter-binding), AKT; details: read-out: AKT IC50
Procedure, shortened: (§1)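 Substrate in fresh buffer receives cofactors, then kinase, then compound in DMSO for a 20 min room-temperature preincubation. Reactions start with 33P-ATP and run 2 h; phosphorylation is read by P81 filter binding, and IC50 comes from a 10-point curve.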

LATS2 = biological target: T1, LATS2 (Homo sapiens, UniProt Q9NRM7); test: RBC HotSpot kinase assay (33P-ATP, P81 filter-binding), LATS2; details: read-out: LATS2 IC50
T1 sequence (Q9NRM7 1-1088): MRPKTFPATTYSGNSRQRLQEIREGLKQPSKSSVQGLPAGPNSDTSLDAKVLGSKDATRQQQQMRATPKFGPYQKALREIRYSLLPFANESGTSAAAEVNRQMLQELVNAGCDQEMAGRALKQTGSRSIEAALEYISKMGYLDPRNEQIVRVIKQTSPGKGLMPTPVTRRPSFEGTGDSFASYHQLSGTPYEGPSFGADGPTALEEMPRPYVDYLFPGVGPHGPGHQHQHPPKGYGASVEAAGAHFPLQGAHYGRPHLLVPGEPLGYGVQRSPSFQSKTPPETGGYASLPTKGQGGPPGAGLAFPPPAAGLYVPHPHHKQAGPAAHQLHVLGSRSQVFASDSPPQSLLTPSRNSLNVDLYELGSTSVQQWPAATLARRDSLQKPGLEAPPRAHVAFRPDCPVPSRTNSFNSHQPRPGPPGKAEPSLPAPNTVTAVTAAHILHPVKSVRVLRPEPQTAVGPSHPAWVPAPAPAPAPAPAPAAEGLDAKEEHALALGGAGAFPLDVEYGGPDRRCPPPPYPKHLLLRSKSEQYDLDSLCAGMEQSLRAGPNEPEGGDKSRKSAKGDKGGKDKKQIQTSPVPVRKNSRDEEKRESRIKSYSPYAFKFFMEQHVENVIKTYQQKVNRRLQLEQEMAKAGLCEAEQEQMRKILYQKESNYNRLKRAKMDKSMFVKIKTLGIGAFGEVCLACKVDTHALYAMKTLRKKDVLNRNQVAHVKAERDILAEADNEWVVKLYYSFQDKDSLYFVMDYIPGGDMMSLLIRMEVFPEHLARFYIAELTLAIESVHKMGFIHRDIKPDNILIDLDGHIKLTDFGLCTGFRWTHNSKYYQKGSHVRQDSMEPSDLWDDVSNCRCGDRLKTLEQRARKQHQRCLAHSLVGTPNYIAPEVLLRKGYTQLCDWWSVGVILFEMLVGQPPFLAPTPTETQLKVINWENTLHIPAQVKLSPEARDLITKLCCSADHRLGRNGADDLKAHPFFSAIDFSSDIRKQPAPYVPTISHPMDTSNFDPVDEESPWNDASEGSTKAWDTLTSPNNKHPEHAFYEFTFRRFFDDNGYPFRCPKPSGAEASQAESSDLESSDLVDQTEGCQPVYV
Procedure, shortened: as §1

LATS1 = biological target: T2, LATS1 (Homo sapiens, UniProt O95835); test: RBC HotSpot kinase assay (33P-ATP, P81 filter-binding), LATS1; details: read-out: LATS1 IC50
T2 sequence (O95835 1-1130): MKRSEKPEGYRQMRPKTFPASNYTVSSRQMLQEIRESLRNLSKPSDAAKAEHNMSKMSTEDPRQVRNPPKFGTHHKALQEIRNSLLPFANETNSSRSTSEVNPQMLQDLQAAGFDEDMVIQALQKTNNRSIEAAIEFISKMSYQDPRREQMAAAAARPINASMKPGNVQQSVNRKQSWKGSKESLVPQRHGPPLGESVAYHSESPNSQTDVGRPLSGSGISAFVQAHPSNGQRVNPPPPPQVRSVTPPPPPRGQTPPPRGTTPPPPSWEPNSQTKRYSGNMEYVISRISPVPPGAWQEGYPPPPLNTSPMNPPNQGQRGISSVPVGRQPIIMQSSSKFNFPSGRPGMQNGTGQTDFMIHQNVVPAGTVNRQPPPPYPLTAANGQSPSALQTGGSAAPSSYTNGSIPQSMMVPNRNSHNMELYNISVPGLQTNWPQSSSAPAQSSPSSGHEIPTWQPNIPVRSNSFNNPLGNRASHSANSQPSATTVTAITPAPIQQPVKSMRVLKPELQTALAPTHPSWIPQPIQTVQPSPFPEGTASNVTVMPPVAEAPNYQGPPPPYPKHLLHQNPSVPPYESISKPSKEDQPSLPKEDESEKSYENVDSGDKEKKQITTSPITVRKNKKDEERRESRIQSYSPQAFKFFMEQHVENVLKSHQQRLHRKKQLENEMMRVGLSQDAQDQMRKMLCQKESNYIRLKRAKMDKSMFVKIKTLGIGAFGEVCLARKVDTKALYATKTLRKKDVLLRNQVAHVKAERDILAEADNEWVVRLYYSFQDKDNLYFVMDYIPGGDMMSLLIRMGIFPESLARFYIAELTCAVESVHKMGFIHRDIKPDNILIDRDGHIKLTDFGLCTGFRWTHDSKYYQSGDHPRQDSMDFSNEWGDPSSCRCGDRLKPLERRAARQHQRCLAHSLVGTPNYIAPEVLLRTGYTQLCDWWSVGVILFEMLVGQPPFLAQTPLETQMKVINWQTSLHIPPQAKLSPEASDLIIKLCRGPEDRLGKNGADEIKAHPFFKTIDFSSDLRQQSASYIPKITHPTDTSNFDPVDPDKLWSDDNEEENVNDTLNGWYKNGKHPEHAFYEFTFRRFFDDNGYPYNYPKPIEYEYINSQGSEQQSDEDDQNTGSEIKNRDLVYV
Procedure, shortened: as §1

[1] = Table 28, biochemical kinase assay
[2] = Table 32, biochemical kinase assay

Chain of AKT (P31749 whole entry): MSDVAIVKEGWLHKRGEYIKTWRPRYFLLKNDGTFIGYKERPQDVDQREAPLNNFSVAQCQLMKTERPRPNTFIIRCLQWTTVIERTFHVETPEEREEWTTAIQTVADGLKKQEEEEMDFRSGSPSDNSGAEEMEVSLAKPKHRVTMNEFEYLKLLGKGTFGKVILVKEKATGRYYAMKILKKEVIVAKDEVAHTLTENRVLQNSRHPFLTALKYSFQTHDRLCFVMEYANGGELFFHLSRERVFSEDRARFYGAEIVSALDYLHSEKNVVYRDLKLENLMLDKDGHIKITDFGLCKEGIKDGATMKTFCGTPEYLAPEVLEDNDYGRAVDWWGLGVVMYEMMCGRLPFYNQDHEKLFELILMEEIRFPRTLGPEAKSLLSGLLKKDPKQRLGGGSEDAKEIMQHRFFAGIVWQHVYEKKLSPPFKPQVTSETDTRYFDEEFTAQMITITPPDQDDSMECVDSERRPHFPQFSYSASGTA

| Structure (SMILES) | IC50 (AKT; [1]) [nM] | IC50 (LATS2; [1]) [nM] | IC50 (LATS1; [1]) [nM] | IC50 (AKT; [2]) [nM] | IC50 (LATS2; [2]) [nM] | IC50 (LATS1; [2]) [nM] |
| --- | --- | --- | --- | --- | --- | --- |
| COc1cc(-c2ccnc3[nH]ccc23)ccc1CN [Compound 268, (2-methoxy-4-(1H-pyrrolo[2,3-b]pyridin-4-yl)phenyl) methanamine] | 618 | 24 | 24 |  |  |  |
| COC(=O)c1c[nH]c2nccc(-c3ccc(C4(O)CNC4)c(Cl)c3)c12 [Compound 106, methyl 4-(3-chloro-4-(3-hydroxyazetidin-3-yl)phenyl)-1H-pyrrolo[2,3-b]pyridine-3-carboxylate] | 885 | 110 | 18.2 |  |  |  |
| COC(=O)c1c[nH]c2nccc(-c3ccc(CN)c(-c4ccccc4)c3)c12 [Compound 214, methyl 4-(6-(aminomethyl)-[1,1′-biphenyl]-3-yl)-1H-pyrrolo[2,3-b]pyridine-3-carboxylate] | 986 | 24 | 11 |  |  |  |
| c1cc(-c2ccc(C3CC4CCCC(C3)N4)cc2)c2cc[nH]c2n1 (stereo not drawn) [Compound 146, 4-(4-(9-azabicyclo[3.3.1]nonan-3-yl)phenyl)-1H-pyrrolo[2,3-b]pyridine] | 2460 | 94.8 | 203 |  |  |  |
| OC1(c2ccc(-c3ccnc4[nH]ccc34)cc2)C[C@H]2CC[C@@H](C1)N2 (stereo partly drawn) [Compound 115, (1R,5S)-3-(4-(1H-pyrrolo[2,3-b]pyridin-4-yl)phenyl)-8-azabicyclo[3.2.1]octan-3-ol] | 176 | 10 | 7.2 |  |  |  |
| C[C@@H]1CN(C(=O)C2(N)CC2)C[C@H](C)C1(O)c1c(F)cc(-c2ccnc3[nH]cc(F)c23)cc1F (stereo partly drawn) [Compound 78, (1-aminocyclopropyl) ((3S,5R)-4-(2,6-difluoro-4-(3-fluoro-1H-pyrrolo[2,3-b]pyridin-4-yl)phenyl)-4-hydroxy-3,5-dimethylpiperidin-1-yl)methanone] | 2430 | 34 | 16.9 |  |  |  |
| Cc1ccccc1-c1c[nH]c2nccc(-c3ccc(CN)cc3)c12 [Compound 229, (4-(3-(o-tolyl)-1H-pyrrolo[2,3-b]pyridin-4-yl)phenyl) methanamine] | 6340 | 235 | 235 |  |  |  |
| NCc1ccc(-c2cc(-c3ccnc4[nH]ccc34)ccc2C2CCNCC2)cc1 [Compound 155, (2′-(piperidin-4-yl)-5′-(1H-pyrrolo[2,3-b]pyridin-4-yl)-[1,1′-biphenyl]-4-yl)methanamine] | 68 | 1 | 4.3 |  |  |  |
| CN(CC(O)(c1ccc(Cl)cc1)c1ccc(-c2ccnc3[nH]ccc23)cc1)C(=O)CN (stereo not drawn) [Compound 1030, N-(2-(4-(1H-pyrrolo[2,3-b]pyridin-4-yl)phenyl)-2-(4-chlorophenyl)-2-hydroxyethyl)-2-amino-N-methylacetamide] |  |  |  | 1.1 | 5.1 | 4.4 |

The remaining lines, values ahead:

| IC50 (AKT; [1]) [nM] | IC50 (LATS2; [1]) [nM] | IC50 (LATS1; [1]) [nM] | IC50 (AKT; [2]) [nM] | IC50 (LATS2; [2]) [nM] | IC50 (LATS1; [2]) [nM] | Structure (SMILES) |
| --- | --- | --- | --- | --- | --- | --- |
| 2260 | 381 | 146 |  |  |  | C[C@@H]1CNC[C@H](C)C1(O)c1cnc(-c2ccnc3[nH]cc(F)c23)cc1-c1ccccc1 (stereo partly drawn) [Compound 130, (3S,5R)-4-(6-(3-fluoro-1H-pyrrolo[2,3-b]pyridin-4-yl)-4-phenylpyridin-3-yl)-3,5-dimethylpiperidin-4-ol] |
| 1060 | 65.5 | 12.4 |  |  |  | COC(=O)c1c[nH]c2nccc(-c3ccc(C4(O)C[C@H]5CC[C@@H](C4)N5)cc3)c12 (stereo partly drawn) [Compound 113, methyl 4-(4-((1R,5S)-3-hydroxy-8-azabicyclo[3.2.1]octan-3-yl)phenyl)-1H-pyrrolo[2,3-b]pyridine-3-carboxylate] |
| 390 | 19.1 | 20.1 |  |  |  | CN1[C@@H]2CC[C@H]1CC(O)(c1ccc(-c3ccnc4[nH]cc(F)c34)cc1)C2 (stereo partly drawn) [Compound 133, (1R,5S)-3-(4-(3-fluoro-1H-pyrrolo[2,3-b]pyridin-4-yl)phenyl)-8-methyl-8-azabicyclo[3.2.1]octan-3-ol] |
| 673 | 3 | 13 |  |  |  | Cc1cc(-c2ccnc3[nH]cc(F)c23)cc(F)c1[C@@]1(O)[C@H](C)CN(C(=O)[C@@H]2C[C@@H](F)CN2)C[C@@H]1C [Compound 66, ((3S,4R,5R)-4-(2-fluoro-4-(3-fluoro-1H-pyrrolo[2,3-b]pyridin-4-yl)-6-methylphenyl)-4-hydroxy-3,5-dimethylpiperidin-1-yl)((2S,4R)-4-fluoropyrrolidin-2-yl)methanone] |
| 4410 | 49.6 | 72.3 |  |  |  | Cc1c[nH]c2nccc(-c3ccc([C@@]4(O)[C@H](C)CNC[C@@H]4C)cn3)c12 [Compound 3, (3R,4s,5S)-3,5-dimethyl-4-(6-(3-methyl-1H-pyrrolo[2,3-b]pyridin-4-yl)pyridin-3-yl)piperidin-4-ol] |
| 449 | 11.2 | 4.7 |  |  |  | CC(C)N1C[C@@H](C)[C@](O)(c2c(F)cc(-c3ccnc4[nH]cc(F)c34)cc2F)[C@@H](C)C1 [Compound 47, (3R,4s,5S)-4-(2,6-difluoro-4-(3-fluoro-1H-pyrrolo[2,3-b]pyridin-4-yl)phenyl)-1-isopropyl-3,5-dimethylpiperidin-4-ol] |
| 108 | 7 | 14.1 |  |  |  | CC1CN(C)CC(C)C1(O)c1ccc(-c2ccnc3[nH]cc(Br)c23)cc1Cl (stereo not drawn) [Compound 125, 4-(4-(3-bromo-1H-pyrrolo[2,3-b]pyridin-4-yl)-2-chlorophenyl)-1,3,5-trimethylpiperidin-4-ol] |
| 788 | 116 | 43.5 |  |  |  | CN1CC2CC(C1)C2(O)c1ccc(-c2ccnc3[nH]cc(F)c23)cc1Cl (stereo not drawn) [Compound 134, 6-(2-chloro-4-(3-fluoro-1H-pyrrolo[2,3-b]pyridin-4-yl)phenyl)-3-methyl-3-azabicyclo[3.1.1]heptan-6-ol] |
| > 10000 | > 10000 | > 10000 |  |  |  | O=C(O)C1(c2ccc(-c3ccnc4[nH]cc(F)c34)cc2)CCNCC1 [Compound 194, 4-(4-(3-fluoro-1H-pyrrolo[2,3-b]pyridin-4-yl)phenyl)piperidine-4-carboxylic acid] |
| 906 | 24.7 | 6.1 |  |  |  | Cc1nc(-c2ccnc3[nH]cc(F)c23)ccc1[C@@]1(O)[C@H](C)CN(C2CCC2)C[C@@H]1C [Compound 50, (3R,4s,5S)-1-cyclobutyl-4-(6-(3-fluoro-1H-pyrrolo[2,3-b]pyridin-4-yl)-2-methylpyridin-3-yl)-3,5-dimethylpiperidin-4-ol] |
